Here are results for 21 compounds from US20050004225A1, “Oxidoreductase inhibitors and methods of screening and using thereof” (priority 2003, published 2005).

For one data set, the target named is T1, human aldose reductase (Homo sapiens, UniProt P15121).
T1 construct: His-tag (cleaved yes); made in house; host or cells: E. coli BL21
In words: Inhibition of recombinant human aldose reductase, DL-glyceraldehyde reduction, NADPH at 340 nm. The format is biochemical. The method, then:
DL Glyceraldehyde, NADPH, and Bezafibrate (2-[4-[2-(4-chlorobenzamiso)ethyl]phenoxy]-2-methyl-propionic acid) were purchased from Sigma-Aldrich. All other chemicals used were of the highest purity available.
Human aldose reductase was recombinantly expressed in E. coli BL21, purified, and used for testing the efficacy of Bezafibrate in regulating aldehyde reduction reaction. […] Over night grown culture was inoculated (25 ml/l) into four 3 l flasks each containing 11 LB supplemented with ampicillin (50 μg/ml) at 37° C. with shaking (250 rpm) for 3 to 4 h until an attenuance (A600) of ˜0.7. Isopropyl β-D-thiogalactoside (IPTG, 1 mM) was added to the culture and was further incubated for 3 h to induce the expression of human aldose reductase gene. […] Cell pellets were resuspended in 80 ml of Talon extraction/wash buffer, (pH 7.9, Clonetech), and lysed by sonication with ten pulses (30 s each) and centrifuged at 12 000 g. […] The slurry was then transferred into a column allowing the matrix to pack and the supernatant to pass through at a flow rate of […]. The column was washed with 50 ml of Talon extraction/wash buffer, and the enzyme was eluted with 50 ml of Talon elution buffer. The eluted protein was dialyzed overnight using Spectra/Por 5-8 kDa MWCO at 4° C. in 50 mM sodium phosphate buffer (pH 7.0) containing 1 mM 2-mercaptoethanol. His-tag from the dialyzed protein was removed using thrombin cleavage kit (Novagen) by adding 1 μl of thrombin to 4 mg of protein and incubating overnight at room temperature. The purity of the protein at each stage of purification was assessed by SDS PAGE, and staining the gels with Coomassie Blue.
Activity with various concentrations of DL glyceraldehyde in the absence and, in the presence of various concentrations of Bezafibrate was determined by monitoring the change in NADPH concentration at room temperature 28±2° C. in a Beckman DU600 model spectrophotometer by measuring the absorbance at 340 nm, in 0.01 M sodium phosphate buffer (pH 6.2). Kinetic parameters were obtained from initial-rate activity measurements, with substrate concentrations of 0.05 mM to 10 mM. Each individual rate measurement was done in duplicate. At least three independent determinations were performed for each kinetic constant. Values were calculated using Sigmaplot Ver 8.0 (SPSS Inc.) using a non-linear Marquardt's regression algorithm that computes the coefficients (parameters) of the independent variable(s) that give the “best fit” between the equation and the data. Inhibition-constant (Ki) and, the IC50 values for bezofibrate was calculated from the secondary plot of slope values from the double-reciprocal plot versus inhibitor concentration and from the plot of rate of reaction versus inhibitor concentration respectively.
The initial rates in the presence of Bezafibrate were analyzed by using equation 1: v=Vmax/((1+Km/S)*(1+I/Ki)/(1+I*beta/Ki)) (1) where, v=rate of reaction, Vmax=maximum initial velocity for the uninhibited reaction, Km=Michaelis constant in the absence of inhibitor, Ki=inhibition constant and beta=the rate constant when enzyme substrate complex breaks down to Enzyme and Product.

In data set [1] the test system is HeLa cervical carcinoma cells. Particulars: cited from earlier work.
Another data set has as its target rat aldose reductase (Rattus norvegicus, UniProt P07943). Particulars: cited from earlier work.
Data set [2] relates to B16 melanoma-induced cachexia. To be noted: cited from earlier work; for B16 melanoma-induced cachexia: mice.
In a further data set the test system is hepatoma cells. Particulars: in the presence of 3-deoxyglucosone and glyceraldehydes; cited from earlier work.
Data set [3] has as its system COS-7 cells. In words: Toxicity of adenine propenal to COS-7 cells, MTT assay. The format is cell-based. Particulars: 100 μM adenine propenal, pre-incubated with 100 μM sorbinil. A general note: Tetrazolium dyes change colour on reduction, which living cells bring about.
For data set [4], the system named is COS-7 cells. In words: Cellular metabolism of adenine propenal in COS-7 cells (HPLC, ESI+/MS). The class given is cell-based. To be noted: 10 μM adenine propenal; for reduction of the glutathione conjugate of adenine propenal in the presence of AR inhibitor: COS-7 cells. Here is the method:
(§1) The cellular metabolism of base propenals was examined in isolated rabbit cardiac myocytes and COS-7 cells. The myocytes from rabbit ventricle were isolated as described in (46) and the COS-7 cells were obtained from ATCC. For metabolic studies, the cells were incubated with 10 μM of adenine propenal in Hepes-Ringer's buffer, pH 7.4. After 30 min of incubation, the medium was removed, and the adenine propenal and metabolites in the medium were separated by HPLC. […] To establish the structure of the glutathione conjugate peak I of the metabolites was injected into ESI^+/MS.
(§2) To probe the role of AR further, whether upregulation of AR would enhance the reductive metabolism of adenine propenal was examined. To enhance the expression of AR, the COS-7 cells were transfected with AR cDNA using lipofectamine.
To examine changes in metabolism, the cells transfected with AR cDNA and the empty vector were incubated with 10 μM adenine propenal as described before. After 30 min of incubation, the medium was collected and separated by HPLC.

Data set [5] deals with isolated rabbit cardiac myocytes. In words: Cellular metabolism of adenine propenal in isolated cardiac myocytes (HPLC, ESI+/MS). The class given is cell-based. To be noted: 10 μM adenine propenal. The method, then:
as §1, §2

Data set [6] deals with T2, rat lens aldose reductase (Rattus norvegicus, UniProt P07943).
T2 construct: host or cells: rat lens (as named)
To be noted: cited from earlier work.

In the next data set the test system is human monocytes. To be noted: human monocytes stimulated by LPS in vitro; cited from earlier work.
Data set [7] concerns murine adenocarcinoma colon26-induced cachexia. To be noted: cited from earlier work.
The test system of a further data set is interleukin-1 (IL-1). Particulars: mice; cited from earlier work.
Setting [8] is: reduction of glyceraldehyde, read-out: Ki value.
The mark [9] stands for this setting: saturating substrate (10 mM DL-glyceraldehyde), read-out: IC50 value.
The mark [10] stands for this setting: Table I, recombinant human AR, reduction of DL-glyceraldehyde, read-out: K1.

Structures are written as SMILES. Read-outs that look alike come from different tables or passages of the source.

By IC50 is commonly meant the concentration needed to halve the response being measured. As to `CC(C)(Oc1ccc(Cl)cc1)C(=O)O` [2-4-Chlorophenoxy clofibric acid], the “inhibitory effect on AR activity (in words)” value (shortened to “inhibitory effect … (in words)”) at human aldose reductase is on record as “inhibitory effect”. The Ki at human aldose reductase (setting [8]) came out at 1.04 ± 0.047 µM. Moreover, at human aldose reductase (setting [9]), the IC50 was 1.2 ± 0.1 µM.

Turning to `CC(C)(Oc1ccc(CCNC(=O)c2ccc(Cl)cc2)cc1)C(=O)O` [Bezafibrate, 2-[4-[2-(4-chlorobenzamiso)ethyl]phenoxy]-2-methyl-propionic acid], on human aldose reductase (apparent noncompetitive inhibition constant, read-out: Ki value, unit inferred), the Ki came out at 2 µM. Further, the half-inhibitory concentration (IC50) at human aldose reductase (setting [9]) stood at 3.8 µM.

Turning to `COc1cccc2c1C(=O)c1c(O)c3c(c(O)c1C2=O)C[C@@](O)(C(C)=O)C[C@@H]3O[C@H]1C[C@H](N)[C@H](O)[C@H](C)O1` [Daunorubicin], the “inhibitory effect … (in words)” value on human aldose reductase is given as “inhibitory effects”. Also, the Ki on human aldose reductase (setting [10]) came out at 21.4 ± 7.67 µM. In addition, the half-inhibitory concentration (IC50) at human aldose reductase (setting [9]) stood at 5 µM.

Regarding `COc1cccc2c1C(=O)c1c(O)c3c(c(O)c1C2=O)C[C@@](O)(C(=O)CO)C[C@@H]3O[C@H]1C[C@H](N)[C@H](O)[C@H](C)O1` [Doxorubicin], at human aldose reductase, the IC50 amounted to 0.2 µM and the Ki was 0.24 ± 0.02 µM.

As for `CCOC(=O)C1=C(O)C(=O)N(Cc2ccccc2)C1` [EBPC, ethyl 1-benzyl-3-hydroxy-2(5H)-oxopyrrole-4-carboxylate], the “cell death or proliferation, EBPC alone” value in data set [1] (30 or 50 μM EBPC alone) is “no effect”. The “percentage of dead cells” value in [1] (24 h, doxorubicin or 30 μM cisplatin with 30 or 50 μM EBPC, vs untreated control) is “significant increase”. In addition, the “extracellular signal-regulated kinase (ERK) activity” value in [1] (EBPC with chemotherapeutic drugs vs chemotherapeutic drugs) is given as “increased”. Besides, the “cytotoxic effects of doxorubicin and cisplatin” value in data set [1] (HeLa cells, combination with EBPC) is “enhances”. The “inhibition of rat aldose reductase” value at rat aldose reductase is “inhibits”.

For `COc1cccc2c1C(=O)c1c(O)c3c(c(O)c1C2=O)C[C@@](O)(C(=O)CO)C[C@@H]3O[C@H]1C[C@H](N)[C@@H](O)[C@H](C)O1` [Epirubicin], on human aldose reductase, the half-inhibitory concentration (IC50) worked out at 5.5 µM and the Ki was determined as 77.6 µM.

For the compound `Cc1ccc(C)c(OCCCC(C)(C)C(=O)O)c1` [Gemfibrozil], the “inhibitory effect … (in words)” value at human aldose reductase is “inhibitory effect”. Moreover, the IC50 was found to be 6.5 ± 0.02 µM on human aldose reductase (Table I, recombinant human AR, reduction of DL-glyceraldehyde, read-out: IC50) and 3 ± 0.2 µM on human aldose reductase (setting [9]). Further, the figures for the Ki on human aldose reductase (setting [10]) and at human aldose reductase (setting [8]) were 3.5 ± 0.79 µM and 2.74 ± 0.072 µM, respectively.

For `CC(=O)[C@]1(O)Cc2c(O)c3c(c(O)c2[C@@H](O[C@H]2C[C@H](N)[C@H](O)[C@H](C)O2)C1)C(=O)c1ccccc1C3=O` [Idamycin], the “inhibitory effect … (in words)” value on human aldose reductase is on record as “inhibitory effects”. For the same compound, the Ki on human aldose reductase (setting [10]) amounted to 20.5 ± 1.5 µM. In addition, the IC50 on human aldose reductase (setting [9]) is 5.6 µM.

Turning to `O=[N+]([O-])NC1=NCCN1Cc1ccc(Cl)nc1` [Imidcloprid, N-(6-chloropyridin-3-ylmethyl)-2-nitroiminoimidazolidine], at human aldose reductase (IC50 value, saturating substrate (10 mM DL-glyceraldehyde)), the 50% inhibitory concentration (IC50) was 1.5 µM. Besides, on human aldose reductase (Ki value, reduction of glyceraldehyde), the Ki turned out to be 12.6 µM.

`CCOP(=O)(Cc1ccc(C(=O)Nc2ccc(Br)cc2C#N)cc1)OCC` [NO-1886]: in data set [2] (mice after intraperitoneal inoculation of B16), the “weight of epididymal fat and whole body lipid” value is on record as “ameliorated”. The B16 melanoma-induced cachexia result in data set [2] is “alleviated”.

Turning to `CC(/C=C1\SC(=S)N(CC(=O)O)C1=O)=C\c1ccccc1` [ONO-2235], in the data set on hepatoma cells, the “viability of hepatoma cells” value is recorded as “decreased”.

Regarding `O=C1NC(=O)[C@@]2(CCOc3ccc(F)cc32)N1` [Sorbinil], the “half life of cell viability after pre-incubation with AR inhibitor” value in the data set on COS-7 cells [3] is 6.1 ± 0.5 h. On human aldose reductase, the “inhibitory effect … (in words)” value is on record as “inhibitory effects”. In the data set with COS-7 cells [4] (AR-transfected COS-7 cells, 30 min, in the presence of sorbinil), the “adenine propenol peak (22 min) in AR cDNA-transfected cells” value was “completely abolished”. Also, the “reduction of the glutathione conjugate of adenine propenal in the presence of AR inhibitor” value (in the data set with COS-7 cells [4]; in [5]) was “significantly prevented” each time.

For the compound `N#CC(=C(/N)Sc1ccccc1N)/C(C#N)=C(\N)Sc1ccccc1N` [U0126], the “EBPC-mediated enhancement of cell death” value in data set [1] (inhibition of ERK activation by MEK inhibitor) is recorded as “reversed”.

For the compound `O=C(O)Cc1nn(Cc2nc3cc(C(F)(F)F)ccc3s2)c(=O)c2ccccc12` [Zopolrestat], on human aldose reductase, the “inhibitory effect … (in words)” value was “inhibitory effects”.

Regarding `OC/C=C/c1ccccc1` [ainnnamyl alcohol], in data set [6], the “inhibition against rat AR” value is reported as “weak inhibition”.

For the compound `O=CC=Cc1ccccc1` [cinnamaldehyde], the “inhibition against rat AR” value in data set [6] is recorded as “high potency”.

With `C=CCc1ccc(O)c(OC)c1` [eugenol], in data set [6], the “inhibition against rat AR” value is reported as “weak inhibition”.

Turning to `O=C(O)Cc1nn(Cc2ccc(Br)cc2F)c(=O)c2ccccc12` [ponalrestat], the “production of interleukin-1 (IL-1)” value with human monocytes is on record as “inhibited”. Further, in data set [7] (colon26 bearing mice), the survival entry is on record as “significantly prolonged”; the “weight of body mass, epididymal fat, gastrocnemius muscle and carcass” value is on record as “attenuated the reduction”. The tumor growth result in data set [7] (mice bearing colon26 subcutaneously) is given as “slightly stimulated”. The “LPS-induced increase of IL-1 in the blood” value in the data set on interleukin-1 (IL-1) is reported as “suppressed”. Besides, in data set [2], the B16 melanoma-induced cachexia entry is listed as “inhibited”.

Regarding `COc1ccc2c(C(=S)N(C)CC(=O)O)cccc2c1C(F)(F)F` [tolrestat], the “reduction of the glutathione conjugate of adenine propenal in the presence of AR inhibitor” value (with COS-7 cells [4]; in data set [5]) was “significantly prevented” in each case.

As to `O=C(O)/C=C/c1ccccc1` [trans-cinnamic acid], the “inhibition against rat AR” value in data set [6] is reported as “weak inhibition”.

In the case of `N#CC(=Cc1ccc(O)cc1)C(=O)O` [α-cyano-4-hydroxycinnamic acid], on human aldose reductase, the IC50 worked out at 0.08 ± 0.005 µM and the Ki was 0.085 µM. Further, on human aldose reductase (recombinant hAR, Lineweaver-Burk plot), the “inhibition pattern with respect to reduction of glyceraldehyde, forward direction” value was “partial noncompetitive inhibition pattern”.
